Test results published in US8957097B2, “Hemi-phorboxazole A derivatives and methods of their use” (The Trustees Of The University Of Pennsylvania, priority 2009, dated 2015).
≈ marks a conversion by molar mass, not a printed value. Like-named read-outs stand apart in the source and are kept apart here.

Assays:
[1] = system: National Cancer Institute's panel of 60 human tumor cell lines; settings: mean over NCI panel of 60 human tumor cell lines; cited from earlier work
[2] = system: HCT-116 Colon; assay: tumor cell growth inhibitory activity, HCT-116 colon; format: cell-based, human; settings: for IC50: Homo sapiens
Method: (§1) Compounds of the invention were assayed for tumor cell growth inhibitory activity, in parallel with (+) phorboxazole A (1) hemi-phorboxazole A (3).

[3] = system: C. albicans ACTCC 14503; assay: antifungal microbroth dilution assay, C. albicans ACTCC 14503; format: cell-based, Candida albicans; settings: for MIC: Candida albicans
Method: (§2) Tests of antifungal activity in microbroth dilution assay against pathogenic Candida strains was performed according to known methods. (National Committee for Clinical Laboratory Standards, 2002. Reference method for broth dilution antifungal susceptibility testing of yeast, 2nd ed. Approved standard M27-A2. National Committee for Clinical Laboratory Standards, Wayne, Pa.). For strains see: Mulder, R. J.; Shafer, C. M.; Dalisay, D. S.; Molinski, T. F. Bioorg. Med. Chem. Lett. 2009, 19, 2928-2930.

[4] = system: C. albicans UCD-FR1; assay: antifungal microbroth dilution assay, C. albicans UCD-FR1; format: cell-based, Candida albicans; settings: for MIC: Candida albicans
Method: as §2

[5] = system: C. albicans 96-489; assay: antifungal microbroth dilution assay, C. albicans 96-489; format: cell-based, Candida albicans
Method: as §2

[6] = system: SK-BR-3 Breast; assay: tumor cell growth inhibitory activity, SK-BR-3 breast; format: cell-based, human; settings: for IC50: Homo sapiens
Method: as §1

[7] = Table 6, HCT-116 colon tumor cells
[8] = Table 5, HCT-116 colon tumor cells
[9] = Table 6, SK-BR-3 breast tumor cells

SMILES	HCT-116 Colon IC50 [2, 7]	C. albicans ACTCC 14503 MIC ([3]; Table 8, microbroth dilution)	C. albicans UCD-FR1 MIC ([4]; Table 8, microbroth dilution)	C. albicans 96-489 MIC ([5]; Table 8, microbroth dilution)	other results
C=C1C[C@@H]2C[C@H]3C[C@@H](O)C[C@H](O3)c3coc(n3)/C=C\C[C@H]3O[C@@H](/C(C)=C/c4coc(C[C@]5(O)C[C@H](OC)C[C@H]([C@H](O)/C=C(C)/C=C/[C@@H](C/C=C/Br)OC)O5)n4)[C@H](C)[C@@H](OC(=O)/C=C\C[C@@H](C1)O2)[C@H]3C [Compound 2, Phorboxazole B]	–	–	–	–	GI50 [1]: 1.58 nM
C=C1C[C@@H]2C[C@@H]3CCO[C@@H](O3)c3cccc(c3)/C=C/C[C@H]3O[C@@H](/C(C)=C/c4ncco4)[C@H](C)[C@@H](OC(=O)/C=C\C[C@@H](C1)O2)[C@H]3C [Compound 27]	5.44 µg/mL	4 µg/mL	8 µg/mL	32 µg/mL	–
C=C1C[C@@H]2C[C@@H]3CCO[C@@H](O3)c3cccc(c3)/C=C/C[C@H]3O[C@@H](/C(C)=C/c4cccs4)[C@H](C)[C@@H](OC(=O)/C=C\C[C@@H](C1)O2)[C@H]3C [Compound 28]	5.96 µg/mL	8 µg/mL	16 µg/mL	32 µg/mL	–
C=C1C[C@@H]2C[C@@H]3CCO[C@@H](O3)c3coc(n3)/C=C/C[C@H]3O[C@@H](/C(C)=C/C#N)[C@H](C)[C@@H](OC(=O)/C=C/C[C@@H](C1)O2)[C@H]3C [Compound (E, E)-5]	–	–	–	–	HCT-116 Colon IC50 [2, 8]: 1.54 µg/mL; C. albicans ACTCC 14503 MIC ([3]; Table 7, microbroth dilution): 4 µg/mL; C. albicans UCD-FR1 MIC ([4]; Table 7, microbroth dilution): 8 µg/mL; C. albicans 96-489 MIC ([5]; Table 7, microbroth dilution): 32 µg/mL
C=C1C[C@@H]2C[C@@H]3CCO[C@@H](O3)c3cccc(c3)/C=C/C[C@H]3O[C@@H](/C(C)=C/C#N)[C@H](C)[C@@H](OC(=O)/C=C/C[C@@H](C1)O2)[C@H]3C [Compound (E, E)-6]	>6.25 µg/mL	>64 µg/mL	>64 µg/mL	>64 µg/mL	–
C=C1C[C@@H]2C[C@@H]3CCO[C@@H](O3)c3coc(n3)/C=C/C[C@H]3O[C@@H](/C(C)=C/I)[C@H](C)[C@@H](OC(=O)/C=C/C[C@@H](C1)O2)[C@H]3C [Compound (E, E)-15]	–	–	–	–	HCT-116 Colon IC50 [2, 8]: >6.25 µg/mL; C. albicans ACTCC 14503 MIC ([3]; Table 7, microbroth dilution): >64 µg/mL; C. albicans UCD-FR1 MIC ([4]; Table 7, microbroth dilution): >64 µg/mL; C. albicans 96-489 MIC ([5]; Table 7, microbroth dilution): >64 µg/mL
C=C1C[C@@H]2C[C@@H]3CCO[C@@H](O3)c3cccc(c3)/C=C/C[C@H]3O[C@@H](/C(C)=C/I)[C@H](C)[C@@H](OC(=O)/C=C/C[C@@H](C1)O2)[C@H]3C [Compound (E, E)-24]	>6.25 µg/mL	>64 µg/mL	>64 µg/mL	>64 µg/mL	–
C=C1C[C@@H]2C[C@@H]3CCO[C@@H](O3)c3cccc(c3)/C=C\C[C@H]3O[C@@H](/C(C)=C/C#N)[C@H](C)[C@@H](OC(=O)/C=C/C[C@@H](C1)O2)[C@H]3C [Compound (E, Z)-6]	>6.25 µg/mL	>64 µg/mL	>64 µg/mL	>64 µg/mL	–
C=C1C[C@@H]2C[C@@H]3CCO[C@@H](O3)c3cccc(c3)/C=C\C[C@H]3O[C@@H](/C(C)=C/I)[C@H](C)[C@@H](OC(=O)/C=C/C[C@@H](C1)O2)[C@H]3C [Compound (E, Z)-24]	>6.25 µg/mL	>64 µg/mL	>64 µg/mL	>64 µg/mL	–
C=C1C[C@@H]2C[C@@H]3CCO[C@@H](O3)c3coc(n3)/C=C/C[C@H]3O[C@@H](/C(C)=C/C#N)[C@H](C)[C@@H](OC(=O)/C=C\C[C@@H](C1)O2)[C@H]3C [Compound (Z, E)-5]	–	–	–	–	HCT-116 Colon IC50 [2, 8]: >6.2 µg/mL; SK-BR-3 Breast IC50 ([6]; Table 5, SK-BR-3 breast tumor cells): >6.2 µg/mL; C. albicans ACTCC 14503 MIC ([3]; Table 7, microbroth dilution): 16 µg/mL; C. albicans UCD-FR1 MIC ([4]; Table 7, microbroth dilution): 16 µg/mL; C. albicans 96-489 MIC ([5]; Table 7, microbroth dilution): >64 µg/mL
C=C1C[C@@H]2C[C@@H]3CCO[C@@H](O3)c3cccc(c3)/C=C/C[C@H]3O[C@@H](/C(C)=C/C#N)[C@H](C)[C@@H](OC(=O)/C=C\C[C@@H](C1)O2)[C@H]3C [Compound (Z, E)-6]	0.207 µg/mL	–	–	–	SK-BR-3 Breast IC50 [6, 9]: 0.258 µg/mL
C=C1C[C@@H]2C[C@@H]3CCO[C@@H](O3)c3coc(n3)/C=C/C[C@H]3O[C@@H](/C(C)=C/I)[C@H](C)[C@@H](OC(=O)/C=C\C[C@@H](C1)O2)[C@H]3C [Compound (Z, E)-15]	–	–	–	–	HCT-116 Colon IC50 [2, 8]: >6.25 µg/mL; C. albicans ACTCC 14503 MIC ([3]; Table 7, microbroth dilution): >64 µg/mL; C. albicans UCD-FR1 MIC ([4]; Table 7, microbroth dilution): >64 µg/mL; C. albicans 96-489 MIC ([5]; Table 7, microbroth dilution): >64 µg/mL
C=C1C[C@@H]2C[C@@H]3CCO[C@@H](O3)c3cccc(c3)/C=C/C[C@H]3O[C@@H](/C(C)=C/I)[C@H](C)[C@@H](OC(=O)/C=C\C[C@@H](C1)O2)[C@H]3C [Compound (Z, E)-24]	>6.25 µg/mL	>64 µg/mL	>64 µg/mL	>64 µg/mL	–
C=C1C[C@@H]2C[C@@H]3C[C@@H](O)C[C@@H](O3)c3coc(n3)/C=C/C[C@H]3O[C@@H](/C(C)=C/C#N)[C@H](C)[C@@H](OC(=O)/C=C\C[C@@H](C1)O2)[C@H]3C [HEMI-PHORBOXAZOLE A, Hemi-Phorboxazole A]	>6.2 µg/mL	>64 µg/mL	>64 µg/mL	>64 µg/mL	IC50 ([2]; HCT-116, read-out: HCT-116 Colon IC50): > 6.2 µg/mL; IC50 ([6]; SK-BR-3, read-out: SK-BR-3 Breast IC50): > 6.2 µg/mL; SK-BR-3 Breast IC50 [6, 9]: >6.2 µg/mL; MIC ([3]; ACTCC14503, read-out: C. albicans ACTCC 14503 MIC): > 64 µg/mL; MIC ([4]; UCDFR1, read-out: C. albicans UCD-FR1 MIC): > 64 µg/mL; MIC ([5]; Candida albicans, 96489, read-out: C. albicans 96-489 MIC): > 64 µg/mL
C=C1C[C@@H]2C[C@@H]3C[C@@H](O)C[C@@H](O3)c3coc(n3)/C=C/C[C@H]3O[C@@H](/C(C)=C/c4coc(C[C@]5(O)C[C@H](OC)C[C@H]([C@H](O)/C=C(C)/C=C/[C@@H](C/C=C/Br)OC)O5)n4)[C@H](C)[C@@H](OC(=O)/C=C\C[C@@H](C1)O2)[C@H]3C [Phorboxazole A]	0.00071 µg/mL	1.0 µg/mL	2.0 µg/mL	1.0 µg/mL	IC50 ([2]; Table 5, HCT-116 colon tumor cells, read-out: HCT-116 Colon IC50): 0.00071 µg/mL (≈ 0.000693 µM); IC50 ([6]; Table 5, SK-BR-3 breast tumor cells, read-out: SK-BR-3 Breast IC50): 0.002 µg/mL (≈ 0.00195 µM); MIC ([3]; ACTCC14503, Table 7, microbroth dilution, read-out: C. albicans ACTCC 14503 MIC): 1 µg/mL (≈ 0.977 µM); MIC ([4]; UCDFR1, Table 7, microbroth dilution, read-out: C. albicans UCD-FR1 MIC): 2 µg/mL (≈ 1.95 µM); MIC ([5]; Candida albicans, 96489, Table 7, microbroth dilution, read-out: C. albicans 96-489 MIC): 1 µg/mL (≈ 0.977 µM); GI50 [1]: 1.58 nM
